Measured values published in patent US8637439B2, “Bathing gel with improved environmental profile” (Coty Inc., priority 2009, dated 2014).

Key:
[1] = tested on: aquatic trophic levels (fish, crustaceous, algae); test: Acute aquatic toxicity (aquatic trophic levels); format: in vivo; conditions: L(E)C50/SFacute
Text: (§1) A comparison of the relative aquatic toxicity profile of the long-chain alkyl hydroxyalkyl cellulose derivative compared to anionic alketh surfactant is shown in Table 3.
(§2) The terms used are defined as follows: • LC50 or EC50: Lethal or effect concentration 50=Concentration in water having 50% chance of causing adverse effects or death to aquatic life) • SFacute: Safety Factor, determined according the number of trophic levels (fish, crustaceous, algae) studied (the largest, the best) • TFacute: L(E)C50/SFacute • NOEC: No observed effect concentration=The highest concentration for which the difference from the control group is not statistically significant in a long term study • SFchronic: Safety Factor, determined according the number of trophic levels (fish, crustaceous, algae) studied • TFchronic: NOEC/SFchronic

[2] = tested on: aquatic trophic levels (fish, crustaceous, algae); test: Chronic aquatic toxicity (aquatic trophic levels); format: in vivo
Text: as §1, §2

C 12/15 A 1-3 EO sulfate was tested, and the TFacute [1] was 0.0041, the TFchronic ([2]; NOEC/SFchronic) was 0.01 and the NOEC ([2]; chronic toxicity, long term study) was 0.1.
